Assay results published in patent US20230026271A1, “Piperazine Compounds for Inhibiting CPS1” (Eisai R&D Management Co., Ltd., priority 2019, published 2023).

How the values were obtained:
CPS1 [1] = target: T1, CPS1 (Homo sapiens, UniProt P31327); assay: ADP-Glo endpoint assay measuring the ATPase activity of CPS1; assay type: biochemical; conditions: geometric mean of a minimum of two values; 50 nM CPS1, 10 μM ATP, 0.2 mM NAG, 60 min at room temperature; read-out: ADPGlo IC50
T1 construct: The full length, human CPS1 gene was cloned into pFastBac HTA; His6 (from the pFastBac HTA vector); made in house; host or cells: SF21 insect cells (baculovirus, Bac-to-bac)
T1 sequence (P31327 39-1500): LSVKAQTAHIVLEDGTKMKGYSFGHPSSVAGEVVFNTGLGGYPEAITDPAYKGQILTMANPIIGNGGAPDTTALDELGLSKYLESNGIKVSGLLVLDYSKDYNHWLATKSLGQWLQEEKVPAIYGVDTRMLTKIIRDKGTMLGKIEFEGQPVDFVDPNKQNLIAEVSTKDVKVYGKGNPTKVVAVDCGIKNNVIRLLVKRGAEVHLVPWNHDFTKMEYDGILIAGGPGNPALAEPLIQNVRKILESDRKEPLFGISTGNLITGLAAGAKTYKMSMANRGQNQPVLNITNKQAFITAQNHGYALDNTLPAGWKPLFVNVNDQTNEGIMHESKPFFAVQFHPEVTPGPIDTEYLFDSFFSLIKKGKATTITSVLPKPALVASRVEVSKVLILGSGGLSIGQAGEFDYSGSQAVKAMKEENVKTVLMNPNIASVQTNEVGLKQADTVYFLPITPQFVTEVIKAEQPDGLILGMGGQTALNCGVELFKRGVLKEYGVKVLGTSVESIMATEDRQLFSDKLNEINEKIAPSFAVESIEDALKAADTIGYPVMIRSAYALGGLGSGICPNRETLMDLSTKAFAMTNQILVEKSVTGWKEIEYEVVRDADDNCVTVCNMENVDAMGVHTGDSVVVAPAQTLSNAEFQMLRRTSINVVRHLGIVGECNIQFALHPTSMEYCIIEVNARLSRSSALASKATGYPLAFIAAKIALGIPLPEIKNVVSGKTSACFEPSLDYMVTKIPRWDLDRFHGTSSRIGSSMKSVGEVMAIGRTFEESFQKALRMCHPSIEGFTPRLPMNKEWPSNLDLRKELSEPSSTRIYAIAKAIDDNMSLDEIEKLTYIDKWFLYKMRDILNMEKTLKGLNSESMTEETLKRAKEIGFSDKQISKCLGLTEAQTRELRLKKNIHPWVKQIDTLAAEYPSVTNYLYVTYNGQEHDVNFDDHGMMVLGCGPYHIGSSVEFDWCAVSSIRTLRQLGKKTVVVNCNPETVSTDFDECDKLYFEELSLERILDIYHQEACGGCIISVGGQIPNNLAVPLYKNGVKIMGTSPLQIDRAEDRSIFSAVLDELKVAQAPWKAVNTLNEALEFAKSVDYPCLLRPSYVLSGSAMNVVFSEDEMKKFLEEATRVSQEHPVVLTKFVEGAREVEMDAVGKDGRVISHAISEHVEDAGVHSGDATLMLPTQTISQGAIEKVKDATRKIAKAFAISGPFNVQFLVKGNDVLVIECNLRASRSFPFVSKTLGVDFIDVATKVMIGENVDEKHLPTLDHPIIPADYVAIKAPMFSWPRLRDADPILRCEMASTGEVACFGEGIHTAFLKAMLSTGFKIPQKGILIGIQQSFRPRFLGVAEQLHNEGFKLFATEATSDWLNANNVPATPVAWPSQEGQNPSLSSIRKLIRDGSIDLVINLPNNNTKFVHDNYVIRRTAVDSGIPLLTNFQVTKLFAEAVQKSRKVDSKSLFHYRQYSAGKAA
In short: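 Full-length human His-tagged CPS1 from SF21 insect cells, 50 nM, preincubated 20 min with compound in pH 7.0 HEPES buffer containing KHCO3, (NH4)2SO3, MgCl2 and 0.2 mM NAG. Reaction started with 10 μM ATP, 60 min at room temperature; ADP formed detected by ADP-Glo luminescence.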

CPS1 [2] = target: T1, CPS1; assay: Assay 2 - Transcreener ADP FP assay (ADP formation from CPS1); assay type: biochemical; conditions: 10 nM CPS1, varying amounts of ATP, 60 min, fluorescence polarization
Description: CPS1 was expressed and purified from SF21 insect cells. The full length, human CPS1 gene was cloned into pFastBac HTA and baculovirus was generated using the Bac-to-bac expression system from Invitrogen. P3 virus was used to infect SF21 insect cells at a density of 1.5E6 cells/mL at an MOI of 2. Cells were harvested by centrifugation after 60 hrs and the cell pellet resuspended in lysis buffer (50 mM glycyl glycine pH 7.4, 20 mM KCl, 1 mM TCEP, 10% glycerol and 20 mM imidazole with Roche protease inhibitor tablet) before being lysed with 40 strokes of a Dounce homogenizer on ice. The insoluble fraction of the lysate was then cleared by centrifugation at 30,000 rpm for 30 min. 40 mL of supernatant was mixed with 2 mL of Ni NTA beads for 45 min at 4° C. in a 50 mL conical tube.
The beads were washed with 40 mL of wash buffer (50 mM glycyl glycine pH 7.4, 500 mM NaCl, 1 mM TCEP, 10% glycerol and 50 mM imidazole) by centrifugation and resuspension of the beads three times. Bound CPS1 protein was eluted in 6 mL of elution buffer (50 mM glycyl glycine pH 7.4, 500 mM NaCl, 1 mM TCEP, 10% glycerol and 250 mM imidazole) three times. Elution fractions were combined and concentrated using an Amicon Ultra centrifugation filter with a 10,000 molecular weight cut off. […]
ADP formation from CPS1 was measured in an endpoint assay using the Transcreener ADP FP kit from BellBbrook (Cat #3010-1K).

Row | IC50 (CPS1 [1]) [µM] | IC50 (CPS1 [2]) [µM] | Structure (SMILES)
1 | > 66.7 |  | COc1ccc(OC)c2[nH]c(C(=O)N3C[C@@H](C)N(C(=O)Cc4cc5ccccc5[nH]4)[C@H](C)C3)cc12 [Compound 91, 1-((2R,6R)-4-(4,7-dimethoxy-1H-indole-2-carbonyl)-2,6-dimethylpiperazin-1-yl)-2-(1H-indol-2-yl)ethanone]
2 | > 66.7 |  | COc1ccc(C(=O)N2[C@H](C)CN(C(=O)c3cccc(OC)c3F)C[C@H]2C)c(F)c1 [Compound 92, ((2R,6R)-4-(2-fluoro-3-methoxybenzoyl)-2,6-dimethylpiperazin-1-yl)(2-fluoro-4-methoxyphenyl)methanone]
3 | > 66.7 |  | COc1ccc(C(=O)N2C[C@@H](C)N(C(=O)c3ccc(NC(C)=O)cc3F)[C@H](C)C2)c(F)c1 [Compound 93, N-(3-fluoro-4-((2R,6R)-4-(2-fluoro-4-methoxybenzoyl)-2,6-dimethylpiperazine-1-carbonyl)phenyl)acetamide]
4 | > 66.7 |  | COc1ccc(C(=O)N2C[C@@H](C)N(C(=O)c3ccc(OC)cc3Cl)[C@H](C)C2)c(F)c1 [Compound 94, ((3R,5R)-4-(2-chloro-4-methoxybenzoyl)-3,5-dimethylpiperazin-1-yl)(2-fluoro-4-methoxyphenyl)methanone]
5 | > 66.7 |  | COc1ccc(C(=O)N2C[C@@H](C)N(C(=O)c3c(F)cc(OC)cc3F)[C@H](C)C2)c(F)c1 [Compound 95, ((3R,5R)-4-(2,6-difluoro-4-methoxybenzoyl)-3,5-dimethylpiperazin-1-yl)(2-fluoro-4-methoxyphenyl)methanone]
6 | > 66.7 |  | COc1ccc(C(=O)N2[C@H](C)CN(C(=O)c3cc(OC)ccc3F)C[C@H]2C)c(F)c1 [Compound 96, ((3R,5R)-4-(2-fluoro-4-methoxybenzoyl)-3,5-dimethylpiperazin-1-yl)(2-fluoro-5-methoxyphenyl)methanone]
7 | > 66.7 |  | COc1ccc(C(=O)N2[C@@H](C)CN(C(=O)c3cc(OC)ccc3F)C[C@@H]2C)c(F)c1 [Compound 97, ((3S,5S)-4-(2-fluoro-4-methoxybenzoyl)-3,5-dimethylpiperazin-1-yl)(2-fluoro-5-methoxyphenyl)methanone]
8 | > 66.7 |  | COc1ccc(C(=O)N2[C@H](C)CN(C(=O)c3c[nH]c4ccc(O)cc34)C[C@H]2C)c(F)c1 [Compound 98, ((3R,5R)-4-(2-fluoro-4-methoxybenzoyl)-3,5-dimethylpiperazin-1-yl)(5-hydroxy-1H-indol-3-yl)methanone]
9 | > 66.7 |  | COc1ccc(C(=O)N2C[C@@H](C)N(C(=O)c3ccc4ccn(C)c4c3)[C@H](C)C2)c(F)c1 [Compound 99, ((3R,5R)-3,5-dimethyl-4-(1-methyl-1H-indole-6-carbonyl)piperazin-1-yl)(2-fluoro-4-methoxyphenyl)methanone]
10 | > 66.7 |  | COc1ccc(C(=O)N2[C@H](C)CN(C(=O)c3ccc(OC)cc3OC)C[C@H]2C)c(F)c1 [Compound 100, ((2R,6R)-4-(2,4-dimethoxybenzoyl)-2,6-dimethylpiperazin-1-yl)(2-fluoro-4-methoxyphenyl)methanone]
11 | > 66.7 |  | COc1ccc(C(=O)N2[C@H](C)CN(C(=O)c3cc(OC)c(OC)cc3F)C[C@H]2C)c(F)c1 [Compound 101, ((2R,6R)-4-(2-fluoro-4,5-dimethoxybenzoyl)-2,6-dimethylpiperazin-1-yl)(2-fluoro-4-methoxyphenyl)methanone]
12 | > 66.7 |  | COc1ccc(C(=O)N2[C@H](C)CN(C(=O)c3ccc(S(C)(=O)=O)cc3F)C[C@H]2C)c(F)c1 [Compound 102, ((2R,6R)-4-(2-fluoro-4-(methylsulfonyl)benzoyl)-2,6-dimethylpiperazin-1-yl)(2-fluoro-4-methoxyphenyl)methanone]
13 | > 66.7 |  | COc1ccc(C(=O)N2[C@H](C)CN(C(=O)c3cc(NC(C)=O)ccc3F)C[C@H]2C)c(F)c1 [Compound 103, N-(4-fluoro-3-((3R,5R)-4-(2-fluoro-4-methoxybenzoyl)-3,5-dimethylpiperazine-1-carbonyl)phenyl)acetamide]
14 | > 66.7 |  | COc1ccc(C(=O)N2C[C@@H](C)N(C(=O)c3c[nH]c4ccc(O)cc34)[C@H](C)C2)c(F)c1 [Compound 104, ((2R,6R)-4-(2-fluoro-4-methoxybenzoyl)-2,6-dimethylpiperazin-1-yl)(5-hydroxy-1H-indol-3-yl)methanone]
15 | 3.19 |  | COc1ccc(C(=O)N2C[C@@H](C)N(C(=O)c3ccc(OC)cc3)[C@H](C)C2)cc1 [Compound 105, ((2R,6R)-2,6-dimethylpiperazine-1,4-diyl)bis((4-methoxyphenyl)methanone)]
16 | 4.22 |  | COc1ccc(C(=O)N2C[C@@H](C)N(C(=O)/C=C/c3ccc(O)cc3)[C@H](C)C2)c(F)c1 [Compound 106, (E)-1-((2R,6R)-4-(2-fluoro-4-methoxybenzoyl)-2,6-dimethylpiperazin-1-yl)-3-(4-hydroxypheny)prop-2-en-1-one]
17 | 6.44 |  | COc1ccc(C(=O)N2[C@H](C)CN(C(=O)c3cnc(N)s3)C[C@H]2C)c(F)c1 [Compound 107, (2-aminothiazol-5-yl)((3R,5R)-4-(2-fluoro-4-methoxybenzoyl)-3,5-dimethylpiperazin-1-yl)methanone]
18 |  | > 66.7 | COc1ccc(C(=O)N2[C@H](C)CN(C(=O)c3cc(OC)ccc3F)C[C@@H]2C)c(F)c1 [Compound 108, ((3S,5R)-4-(2-fluoro-4-methoxybenzoyl)-3,5-dimethylpiperazin-1-yl)(2-fluoro-5-methoxyphenyl)methanone]
